In US20210060016A1, “ANTICANCER AGENT” (JAPANESE FOUNDATION FOR CANCER RESEARCH, priority 2017, published 2021):

What was measured:
[1] = test system: human colorectal cancer cell line COLO-320DM; experiment: MTT assay, combination of test compound and other anticancer agents; format: cell-based
Experimental: The ratio of residual cells in treatment of the human colorectal cancer cell line COLO-320DM with a combination of the compound prepared in each Compound Example (test compound or tankyrase inhibitory compound) and each of the anticancer agents was measured to evaluate the cell killing effect of the combination on the human colorectal cancer cell line COLO-320DM. The combinations of test compounds and anticancer agents are as follows.
(Example 8): combination of the compound prepared in Compound Example 5 and temozolomide, melphalan, gemcitabine, cytarabine (Ara-C), fluorouracil (5-FU), pemetrexed, mercaptopurine, methotrexate, irinotecan (SN-38), etoposide (VP-16), actinomycin D, daunorubicin, doxorubicin, bleomycin, mitoxantrone, oxaliplatin, carboplatin or cisplatin (Example 9): combination of the compound prepared in Compound Example 110 (G007-LK) and irinotecan (SN-38) (Example 10): combination of the compound prepared in Compound Example 11 and irinotecan (SN-38) (Example 11): combination of the compound prepared in Compound Example 19 and irinotecan (SN-38) (Example 12): combination of the compound prepared in Compound Example 101 and irinotecan (SN-38) (Example 13): combination of the compound prepared in Compound Example 1 and irinotecan (SN-38) (Example 14): combination of the compound prepared in Compound Example 113 and irinotecan (SN-38)
Commercially available compounds were used for temozolomide (manufactured by Sigma-Aldric), melphalan (manufactured by Signa-Aldrich), gemcitabine (Gemcitabine hydrochloride; manufactured by Sigma-Aldric), cytarabine (Cytosine β-D-arabinofuranoside (Ara-C); manufactured by Sigma-Aldrich), fluorouracil (5-Fluorouracil (5-FU); manufactured by Sigma-Aldrich), pemetrexed (Pemetrexed disodium heptahydrate; manufactured by Sigma-Aldrich), mercaptopurine (6-Mercaptopurine monohydrate; manufactured by Sigma-Aldrich), methotrexate (Methotrexate hydrate; manufactured by Sigma-Aldrich), irinotecan (7-Ethyl-10-hydroxycamptothecin (SN-38); manufactured by Sigma-Aldrich), etoposide (Etoposide (VP-16); manufactured by Enzo Life Sciences, Inc.), actinomycin D (manufactured by nacalai tesque), daunorubicin (Daunorubicin hydrochloride; Calbiochem), doxorubicin (Doxorubicin hydrochloride; manufactured by Sigma-Aldrich), bleomycin (Bleomycin sulfate; manufactured by Enzo Life Sciences, Inc.), mitoxantrone (Mitoxantrone dihydrochloride; manufactured by Sigma-Aldrich), oxaliplatin (manufactured by Sigma-Aldrich), carboplatin (manufactured by Sigma-Aldrich) and cisplatin (manufactured by Enzo Life Sciences, Inc.).
First, the human colorectal cancer cell line COLO-320DM was suspended in RPMI1640 medium (hereinafter, medium) containing inactivated 10% fetal bovine serum, and the cells were seeded in a 96-well microplate at 350 cells (75 μL) per well. The cells were subjected to stationary culture overnight in a CO2 incubator at 37° C. Thereafter, in Example 8, a medium (25 μL) containing a combination of the compound prepared in Compound Example 5 and each of the anticancer agents was added in triplicate in such a manner that the final concentrations of the test compound (compound prepared in Compound Example 5) were 0 nM or 30 nM and that the final concentrations of each anticancer agent were those shown in Table 14. In Examples 9 to 14, a medium (25 μL) containing a combination of the compound prepared in each of Compound Examples and each of the anticancer agents was added in triplicate in such a manner that the final concentrations of the test compound were 0 nM or those shown in FIGS. 9 to 14. As a control, 25 μL of a medium containing only dimethyl sulfoxide (DMSO) which is a solvent was added. […]

tankyrase-2 = molecular target: T1, tankyrase-2 (Homo sapiens, UniProt Q9H2K2); experiment: X-ray diffraction of tankyrase-2 crystal soaked with the compound; format: binding
T1 sequence (Q9H2K2 1-1166): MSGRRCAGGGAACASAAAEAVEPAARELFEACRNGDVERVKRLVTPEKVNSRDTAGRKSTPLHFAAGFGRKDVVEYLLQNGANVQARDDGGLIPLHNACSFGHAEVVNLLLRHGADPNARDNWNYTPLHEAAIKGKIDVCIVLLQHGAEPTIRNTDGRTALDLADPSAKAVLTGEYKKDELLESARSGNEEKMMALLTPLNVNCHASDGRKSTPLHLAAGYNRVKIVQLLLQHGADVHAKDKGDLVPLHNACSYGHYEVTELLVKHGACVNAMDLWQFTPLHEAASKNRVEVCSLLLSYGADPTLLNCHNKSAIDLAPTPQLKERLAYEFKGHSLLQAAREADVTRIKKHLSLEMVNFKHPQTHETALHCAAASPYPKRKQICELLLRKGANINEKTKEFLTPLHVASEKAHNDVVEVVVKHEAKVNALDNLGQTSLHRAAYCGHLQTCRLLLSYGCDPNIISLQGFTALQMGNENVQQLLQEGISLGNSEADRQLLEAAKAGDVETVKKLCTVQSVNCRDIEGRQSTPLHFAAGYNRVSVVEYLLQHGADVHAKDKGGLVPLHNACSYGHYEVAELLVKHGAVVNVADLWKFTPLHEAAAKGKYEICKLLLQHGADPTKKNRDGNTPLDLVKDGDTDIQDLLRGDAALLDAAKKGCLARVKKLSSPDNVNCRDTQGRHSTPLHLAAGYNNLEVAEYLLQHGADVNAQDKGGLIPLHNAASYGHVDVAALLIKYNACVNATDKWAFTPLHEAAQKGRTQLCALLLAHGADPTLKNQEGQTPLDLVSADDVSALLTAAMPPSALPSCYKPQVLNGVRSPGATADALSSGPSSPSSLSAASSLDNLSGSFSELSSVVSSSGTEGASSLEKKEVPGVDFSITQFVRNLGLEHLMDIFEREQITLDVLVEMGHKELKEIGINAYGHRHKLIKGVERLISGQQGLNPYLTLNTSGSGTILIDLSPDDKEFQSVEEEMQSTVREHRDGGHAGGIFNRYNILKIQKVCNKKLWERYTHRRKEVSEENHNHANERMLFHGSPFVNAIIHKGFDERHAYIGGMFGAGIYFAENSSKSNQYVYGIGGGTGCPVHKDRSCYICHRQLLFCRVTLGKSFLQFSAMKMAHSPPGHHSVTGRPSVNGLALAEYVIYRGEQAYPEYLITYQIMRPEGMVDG
Excerpt: In the present invention, whether the tankyrase inhibitory compound is a nicotinamide-type compound or an adenosine-type compound can be determined by X-ray diffraction, more specifically a method in which a complex is crystallized from a mixed liquid of a tankyrase crystal prepared beforehand and the tankyrase inhibitory compound, and subjected to X-ray diffraction (soaking method), or a method in which a complex is crystallized from a mixed liquid having the tankyrase inhibitory compound coexisting with tankyrase in a state before the crystallization, and subjected to X-ray diffraction (co-crystallization). Whether the tankyrase inhibitory compound is a dual-type compound can be determined by preparing a crystal under any one of the above-described conditions, and performing X-ray diffraction.
X-ray diffraction data of a tankyrase-2 crystal soaked with the compound prepared in Compound Example 1 was measured with BL26B2 Beam Line in a large synchrotron radiation facility Spring-8 (Sayo-gun, Hyogo). The wavelength of the X-ray was 1.000 Å, and MX-225 (Rayonix, LLC) was used as a detector. The diffraction data was treated with XDS (Kabsch, 2010) and the CCP4 program (Winn et al., 2011).

[2] = Examples 9 to 14, COLO-320DM: test compound added at the concentration shown in FIGS. 9 to 14 to irinotecan (SN-38), survival with only irinotecan = 100%

Compound: O=c1[nH]c(N2CCC3(CC2)CN(CCO)c2cc(F)cc(F)c23)nc2c1CCCC2 [compound 1, 2-[4,6-Difluoro-1-(2-hydroxyethyl)spiro [indolin-3,4′-piperidin]-1′-yl]-5,6,7,8-tetrahydroquinazolin-4(3H)-one]
- cell survival rate [1, 2]: about 50%
- binding pocket type by X-ray diffraction (tankyrase-2): nicotinamide-type compound which binds to the nicotinamide binding pocket of tankyrase

Compound: CN1CCN(c2cc(F)c3c(c2)N(C)C(=O)C32CCN(c3nc4c(c(=O)[nH]3)CCCN4C)CC2)CC1 [compound 5, 4-Fluoro-1-methyl-1′-(8-methyl-4-oxo-3,4,5,6,7,8-hexahydropyrido [2,3-d]pyrimidin-2-yl)-6-(4-methylpiperazin-1-yl)spiro [indolin-3,4′-piperidin]-2-one]
- cell survival rate ([1]; Example 8, COLO-320DM: test compound further added at 30 nM to each anticancer agent (temozolomide ... cisplatin), survival with only the anticancer agent = 100%): about 50%

Compound: CN1CCCc2c1nc(N1CCC3(CC1)C(=O)N(C)c1cc(N4CCC(C(=O)O)CC4)cc(F)c13)[nH]c2=O [compound 11, 1-[4-Fluoro-1-methyl-1′-(8-methyl-4-oxo-3,4,5,6,7,8-hexahydropyrido [2,3-d]pyrimidin-2-yl)-2-oxospiro[indolin-3,4′-piperidin]-6-yl]piperidin-4-carboxylic acid]
- cell survival rate [1, 2]: about 50%

Compound: C[C@@H]1CN(c2cc(F)c3c(c2)N(C)C(=O)C32CCN(c3nc4c(c(=O)[nH]3)CCCN4C)CC2)C[C@H](C)O1 [compound 19]
- cell survival rate [1, 2]: about 50%
